The values that follow come from patent publication US7868004B2, “Menthane carboxamide derivatives having cooling properties” (Givaudan S.A., priority 2005, dated 2011).

Type in all cases: in vivo
Test [1] relates to mouth. Kind of test: Application in mouthwash: cooling perception in the mouth. Particulars: mouthwash with 10 mL of 1% solution in alcohol per liter, 30 mL swished, gargled and spit out. How it is done: [table] All the ingredients are mixed. 30 mL of obtained solution is put in the mouth, swished around, gargled and spit out. […] The cooling perception lasts for several hours

The test system of another test is panelists. Kind of test: experiment on cooling intensity: panelists taste solutions and compare with menthol at 2 ppm. Conditions: tasted by a small group of panelists; reference menthol at 2 ppm.
In test [2] the test system is mouth. Put plainly: Application in toothpaste: cooling perception in the mouth. Particulars: toothgel with 1.500 g of 2% solution in PG per 100 g, teeth brushed, mouth rinsed with water. The text has this:
[table] The chemicals are mixed in the toothgel, a piece of toothgel is put on a toothbrush and a panelist's teeth are brushed. The mouth is rinsed with water and the water is spit out. […] The cooling perception lasts for several hours.

Take `CC1CCC(C(C)C)C(C(=O)Nc2cccc3ocnc23)C1` (stereo not shown) [Example 1, N-benzooxazol-4-yl 3-p-menthanecarboxamide]: the “duration of cooling perception” value with mouth [1] is “several hours”. Besides, the cooling sensation result in the test on mouth [1] (every area of the mouth and lips) was “intense cooling”. In addition, the “Concentration of solution having a cooling intensity similar or slightly higher than that of a solution of menthol at 2 ppm” value (“Concentration” below) with panelists came out at 0.02 ppm. `CC1CCC(C(C)C)C(O)C1` (stereo not shown) [Example 1-Menthol, 1-Menthol, reference compound]: the “Concentration” value with panelists worked out at 2.0 ppm. Still for that read-out and setting: then `CC1CCC(C(C)C)C(C(=O)Nc2ccc3ncsc3c2)C1` (stereo not shown) [Example 3, N-benzothiazol-6-yl menthanecarboxamide], with 0.3 ppm; and `CC1CCC(C(C)C)C(C(=O)Nc2ccc(-n3cncn3)cc2)C1` (stereo not shown) [Example 4, N-4-([1,2,4]triazol-1-yl)-phenyl-3-p-menthanecarboxamide], with 0.02 ppm; and `CC1CCC(C(C)C)C(C(=O)Nc2ccc(-c3cnco3)cc2)C1` (stereo not shown) [Example 5, N-4-(oxazol-5-yl)-phenyl-3-p-menthanecarboxamide], with 0.5 ppm. For the compound `CC1CCC(C(C)C)C(C(=O)Nc2cccc(-c3cnco3)c2)C1` (stereo not shown) [Example 6, N-3-(oxazol-5-yl)-phenyl-3-p-menthanecarboxamide], the “duration of cooling perception” value in the test with mouth [2] is given as “several hours”. Also, in the test with mouth [2] (all areas of the mouth), the cooling sensation result was “intense cooling sensation”. The “Concentration” value in the test with panelists was found to be 0.1 ppm. For `CC1CCC(C(C)C)C(C(=O)Nc2ccc(N3CCOCC3)cc2)C1` (stereo not shown) [N-4-(morpholin-4-yl)-phenyl 3-p-menthanecarboxamide], in the test on panelists, the “Concentration” value is recorded as 0.2 ppm.

Take `CC1CCC(C(C)C)C(C(=O)Nc2ccc(-n3cccn3)cc2)C1` (stereo not shown) [N-4-(pyrazol-1-yl)-phenyl-3-p-menthanecarboxamide]: in the test on panelists, the “Concentration” value came to 0.02 ppm. The same measure, in the same setting: then `CC1CCC(C(C)C)C(C(=O)Nc2ccc3c(c2)OCO3)C1` (stereo not shown) [N-benzo[1,3]dioxol-5-yl-3-p-menthanecarboxamide], with 0.02 ppm.
